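Five compound concentrations were applied to cells in 96-well plates for 48 hours; endpoints were derived by simple linear interpolation of the resulting dose-response curve. At the GI50, growth is halved.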 Active and inactive are the calls of the source. Cut-off read from the data, not from the text of the source: active = GI50 up to about 1.1 µM and inactive = higher.
Experiments:
Assay in all cases: inhibition of tumour cell growth, NCI panel, 48 h
KM12 = tested on: KM12
NCI-H460 = tested on: NCI-H460
RXF 393 = tested on: RXF 393
CCRF-CEM = tested on: CCRF-CEM
SNB-19 = tested on: SNB-19
UACC-257 = tested on: UACC-257
NCI-H23 = tested on: NCI-H23
M14 = tested on: M14
SN12C = tested on: SN12C
SF-539 = tested on: SF-539
EKVX = tested on: EKVX
SK-MEL-28 = tested on: SK-MEL-28
HCT-15 = tested on: HCT-15
OVCAR-3 = tested on: OVCAR-3
RPMI-8226 = tested on: RPMI-8226
MOLT-4 = tested on: MOLT-4
HCT-116 = tested on: HCT-116
HL-60 = tested on: HL-60
SR = tested on: SR

N#CC1=C(c2ccccc2)OC2(N)OC(c3ccccc3)=C(C#N)C12C#N (stereo unspecified)
GI50 (KM12): > 100 µM (inactive)
GI50 (NCI-H460): > 100 µM (inactive)
GI50 (RXF 393): 69.3 µM (inactive)
GI50 (CCRF-CEM): 56.1 µM (inactive)
GI50 (SNB-19): > 100 µM (inactive)
GI50 (UACC-257): > 100 µM (inactive)
GI50 (NCI-H23): > 100 µM (inactive)
GI50 (M14): > 100 µM (inactive)
GI50 (SN12C): > 100 µM (inactive)
GI50 (SF-539): > 100 µM (inactive)
GI50 (EKVX): > 100 µM (inactive)
GI50 (SK-MEL-28): > 100 µM (inactive)
GI50 (HCT-15): > 100 µM
GI50 (OVCAR-3): 36.9 µM (inactive)
GI50 (RPMI-8226): 39.4 µM (inactive)
GI50 (MOLT-4): > 100 µM (inactive)

Cc1ccc(S(=O)(=O)C2CC2(Cl)Cl)cc1 (stereo unspecified)
GI50 (KM12): 66.2 µM (inactive)
GI50 (NCI-H460): 50.1 µM (inactive)
GI50 (RXF 393): 15.1 µM (inactive)
GI50 (CCRF-CEM): 11.1 µM (inactive)
GI50 (HCT-116): 20.4 µM (inactive)
GI50 (SNB-19): > 100 µM (inactive)
GI50 (UACC-257): 21.2 µM (inactive)
GI50 (NCI-H23): 24.7 µM (inactive)
GI50 (M14): 14.7 µM (inactive)
GI50 (SN12C): 18.7 µM (inactive)
GI50 (SF-539): 31.4 µM (inactive)
GI50 (EKVX): > 100 µM (inactive)
GI50 (SK-MEL-28): 53.1 µM (inactive)
GI50 (HCT-15): 23.4 µM
GI50 (OVCAR-3): 19.9 µM (inactive)
GI50 (MOLT-4): 13.9 µM (inactive)

O=c1[nH]cc(F)c(=O)n1C1OC(CO)C(O)C1O (stereo unspecified)
GI50 (KM12): > 100 µM (inactive)
GI50 (NCI-H460): > 100 µM (inactive)
GI50 (RXF 393): > 100 µM (inactive)
GI50 (HL-60): > 100 µM (inactive)
GI50 (CCRF-CEM): > 100 µM (inactive)
GI50 (SNB-19): > 100 µM (inactive)
GI50 (UACC-257): > 100 µM (inactive)
GI50 (NCI-H23): > 100 µM (inactive)
GI50 (M14): > 100 µM (inactive)
GI50 (SN12C): > 100 µM (inactive)
GI50 (EKVX): > 100 µM (inactive)
GI50 (SK-MEL-28): > 100 µM (inactive)
GI50 (HCT-15): > 100 µM
GI50 (OVCAR-3): > 100 µM (inactive)
GI50 (RPMI-8226): > 100 µM (inactive)
GI50 (MOLT-4): > 100 µM (inactive)

CN(C(=O)C12C3C4C5C3C1(C(=O)O)C5C42)C(C)(C)C (stereo unspecified)
GI50 (KM12): > 100 µM (inactive)
GI50 (NCI-H460): > 100 µM (inactive)
GI50 (HL-60): 17.1 µM (inactive)
GI50 (SR): > 100 µM (inactive)
GI50 (CCRF-CEM): 76.6 µM (inactive)
GI50 (HCT-116): 34.2 µM (inactive)
GI50 (SNB-19): > 100 µM (inactive)
GI50 (UACC-257): > 100 µM (inactive)
GI50 (NCI-H23): > 100 µM (inactive)
GI50 (M14): > 100 µM (inactive)
GI50 (SN12C): > 100 µM (inactive)
GI50 (SF-539): > 100 µM (inactive)
GI50 (EKVX): > 100 µM (inactive)
GI50 (SK-MEL-28): > 100 µM (inactive)
GI50 (HCT-15): 33.2 µM
GI50 (OVCAR-3): > 100 µM (inactive)
GI50 (RPMI-8226): 52 µM (inactive)
GI50 (MOLT-4): > 100 µM (inactive)

CN(C)/N=N/c1ccc(S(N)(=O)=O)cc1
GI50 (KM12): > 100 µM (inactive)
GI50 (NCI-H460): > 100 µM (inactive)
GI50 (SR): > 100 µM (inactive)
GI50 (CCRF-CEM): 6.43 µM (inactive)
GI50 (HCT-116): > 100 µM (inactive)
GI50 (SNB-19): > 100 µM (inactive)
GI50 (UACC-257): > 100 µM (inactive)
GI50 (NCI-H23): > 100 µM (inactive)
GI50 (M14): > 100 µM (inactive)
GI50 (SN12C): > 100 µM (inactive)
GI50 (SF-539): > 100 µM (inactive)
GI50 (EKVX): > 100 µM (inactive)
GI50 (SK-MEL-28): > 100 µM (inactive)
GI50 (HCT-15): > 100 µM
GI50 (OVCAR-3): > 100 µM (inactive)
GI50 (RPMI-8226): > 100 µM (inactive)
GI50 (MOLT-4): > 100 µM (inactive)

O=c1c(-c2ccccc2)c2oc(c1-c1ccccc1)CSCc1cccc(c1)CSC2
GI50 (KM12): 60.3 µM (inactive)
GI50 (NCI-H460): 38.7 µM (inactive)
GI50 (RXF 393): 14.5 µM (inactive)
GI50 (HL-60): 67.9 µM (inactive)
GI50 (CCRF-CEM): 80 µM (inactive)
GI50 (HCT-116): 41.2 µM (inactive)
GI50 (SNB-19): 33 µM (inactive)
GI50 (UACC-257): > 100 µM (inactive)
GI50 (NCI-H23): > 100 µM (inactive)
GI50 (M14): > 100 µM (inactive)
GI50 (SN12C): 49.1 µM (inactive)
GI50 (SF-539): 22.7 µM (inactive)
GI50 (EKVX): 42.1 µM (inactive)
GI50 (SK-MEL-28): 24 µM (inactive)
GI50 (HCT-15): > 100 µM
GI50 (OVCAR-3): 27.8 µM (inactive)
GI50 (RPMI-8226): 27.9 µM (inactive)
GI50 (MOLT-4): > 100 µM (inactive)
